pIC50: −log10 of the molar value. Read-outs that look alike come from different tables or passages of the source.
Legend:
[1] = system: interleukin-2 (IL-2); assay: Inhibition of interleukin-2 release in Jurkat T cells, ELISA; assay type: cell-based, human; settings: Jurkat T cells stimulated with PMA and PHA, 18 h
Method: Human E6.1 Jurkat T cells were cultured in RPMI-1640 with 10% fetal bovine serum (FBS), 2 mM I-glutamine, and 1 mM Na-pyruvate. After serum starvation for 7 h, Jurkat cells were plated in 96 well culture plates at 1.25×10^5 cells/mL in RPMI-1640 (without phenol red) with 10% FBS. Cells were treated with phorbol 12-myristate 13-acetate (PMA, 1.25 ng/mL) and phytohemaglutinin (PHA, 0.25 μg/mL) to stimulate secretion of IL-2. Testing compound or DMSO vehicle was added to appropriate wells. […] Plates were then incubated for 18 h. Cell supernatants were collected (100 μL) and assayed for interleukin-2 (IL-2) by ELISA (Human IL-2 ELISA Kit, available from BD Biosciences, San Jose, Calif.). All test conditions were assayed in triplicate and verified with repeated experiments three times.

[2] = system: HIF-1; assay: ODD-Luc assay (luciferase reporter) for HIF-1 inhibitory activity; assay type: cell-based, mouse; settings: read-out: HIF-1 inhibitory activity IC50; 4T1-ODD-Luc cells, 240 μM CoCl2, compounds 24 h
Method: The HIF-1 inhibitory of compound 1, 18, and the anti-diol diastereomer 22 were assessed with the ODD-Luc assay (Li, F.; Sonveaux, P.; Rabbani, Z. N.; Liu, S.; Yan, B.; Huang, Q.; Vujaskovic, Z.; Dewhirst, M. W.; Li, C. Y. Mol. Cell 2007, 26, 63-74, which is incorporated by reference). 4T1-ODD-Luc cells, stably transfected with the oxygen-dependent-degradation (ODD) domain of HIF-1α and a firefly luciferase reporter, were seeded in the 24-well plate at a density of 10^5 cells/well. After 16-hour incubation, cells were treated with 240 μM of Cobalt (II) Chloride (Sigma-Aldrich, St. Louis, Mo., USA) and serially diluted compounds for 24 h. To measure the luciferase signals, luciferin (150 mg/mL) was added and the plates were imaged using the Xenogen IVIS imaging system and associated Living Image software (Xenogen, Alameda, Calif.). Luciferase expression/activity was detected and quantified as relative light units (RLUs). Results are means±SD, n=3.
To determine HIF-1 inhibitory activity of 31 and 33, a luciferase-reporter based assay was used as a primary screen. […] Luciferase signals were detected and quantified as relative light units (RLUs).

[3] = system: HIF-1α protein; assay: Western blot of nuclear extracts, HIF-1α expression in 4T1 cells; assay type: cell-based, mouse
[4] = system: HIF-1α; assay: Western blot of nuclear extracts, HIF-1α expression in MDA-MB-231 cells; assay type: cell-based, human
[5] = system: VEGF; assay: HIF-1 regulated VEGF secretion, ELISA; assay type: cell-based, mouse; settings: 4T1 cells, hypoxia 0.5% O2, 24 h
From the text: Vascular endothelial growth factor (VEGF) is a gene that is highly involved in tumor progression as a pro-angiogenic factor.

[6] = system: 4T1 cells; settings: 24 h, highest concentration examined 10 μM
Method: Like MTT (3-(4,5-d imethylthiazol-2-yl)-2,5-diphenyltetrazolium bromide, a tetrazole), MTS was reduced into a formazan product by living cells in the presence of an electron coupling reagent (phenazine methosulfate, PMS). The absorbance of the formazan was detected at 490 nm. […] Then cells were washed and incubated another three hours with cell medium containing MTS/PMS solution at 37° C. (21% O2, 5% CO2). Relative cell survival rate was determined on the O.D. values measured at 490 nm.

[7] = system: 60 different human tumor cell lines; assay: NCI-60 DTP Human Tumor Cell Line Screen; assay type: cell-based
Method: The NCI-60 DTP Human Tumor Cell Line Screen utilized 60 different human tumor cell lines, representing leukemia, melanoma, and cancers of the lung, colon, brain, ovary, breast, prostate, and kidney. The screening was a two-stage process.
The human tumor cell lines of the cancer screening panel were grown in RPMI 1640 medium containing 5% fetal bovine serum and 2 mM L-glutamine. For a typical screening experiment, cells were inoculated into 96 well microtiter plates in 100 μL at plating densities ranging from 5,000 to 40,000 cells/well depending on the doubling time of individual cell lines.
After 24 h, two plates of each cell line were fixed in situ with TCA, to represent a measurement of the cell population for each cell line at the time of drug addition (Tz). […] At the time of drug addition, an aliquot of frozen concentrate was thawed and diluted to twice the desired final maximum test concentration with complete medium containing 50 μg/mL gentamicin. Additional four, 10-fold, or ½ log serial dilutions were made to provide a total of five drug concentrations plus control. Aliquots of 100 μL of these different drug dilutions were added to the appropriate microtiter wells already containing 100 μL of medium, resulting in the required final drug concentrations.
For adherent cells, the assay was terminated by the addition of cold TCA. Cells were fixed in situ by the gentle addition of 50 μL of cold 50% (w/v) TCA (final concentration, 10% TCA) and incubated for 60 minutes at 4° C. The supernatant was discarded, and the plates were washed five times with tap water and air dried. Sulforhodamine B (SRB) solution (100 μL) at 0.4% (w/v) in 1% acetic acid was added to each well, and plates were incubated for 10 minutes at room temperature. […] Bound stain was subsequently solubilized with 10 mM trizma base, and the absorbance was read on an automated plate reader at a wavelength of 515 nm. […] Using the seven absorbance measurements [time zero, (Tz), control growth, (C), and test growth in the presence of drug at the five concentration levels (Ti)], the percentage growth was calculated at each of the drug concentrations levels. Percentage growth inhibition was calculated as: [(Ti−Tz)/(C−Tz)]×100 for concentrations for which Ti>/=Tz [(Ti−Tz)/Tz]×100 for concentrations for which Ti<Tz.
Three dose response parameters were calculated for each experimental agent: GI50, TGI, and LC50. […] The drug concentration resulting in total growth inhibition (TGI) was calculated from Ti=Tz. […] Values were calculated for each of these three parameters if the level of activity was reached; however, if the effect was not reached or is exceeded, the value for that parameter was expressed as greater or less than the maximum or minimum concentration tested.

[8] = system: Athymic Nude mouse; assay: Non-tumored animal toxicity assay, single dose; assay type: in vivo; settings: for Death Days / Survivors/Total at day 15: single dose
Method: All treatment was administered according to exact body weight. A single Athymic Nude mouse was given a single injection (IP) of 400 mg/kg; a second mouse received a dose of 200 mg/kg, and a third mouse received a single dose of 100 mg/kg. […] They were sacrificed if they lost more than 20% of their body weight or if there were other signs of significant toxicity. […] This process was repeated until a tolerated dose was found. This dose was then designated the maximum tolerated dose (MTD). The mice were allowed ad libitum feed and water. Injections were administered IP. Dose volumes were generally 0.1 mL/10 grams body weight but may be up to 0.2 mL/10 grams of body weight.

[9] = system: HIF-1; settings: T47D cells, 10 μM 1,10-phenanthroline, 16 h; cited from earlier work
[10] = single dose 10 μM, leukemia, melanoma, and ovarian cancer

Compound: O=c1ccc2c(OCCCCc3ccccc3)c3ccoc3cc2o1 [Psora4, reference compound]
- release of interleukin-2 [1]: inhibited

Compound: COc1ccc([C@H](O)[C@@H](C)Oc2ccc(C3OC(c4ccc(O[C@H](C)[C@@H](O)c5ccc(OC)c(OC)c5)c(OC)c4)[C@H](C)[C@H]3C)cc2OC)cc1OC (stereo partly drawn) [Compound 22]
- release of interleukin-2 [1]: inhibited

Compound: COc1ccc([C@@H](O)[C@@H](C)Oc2ccc(C3OC(c4ccc(O[C@H](C)[C@H](O)c5ccc(OC)c(OC)c5)c(OC)c4)[C@H](C)[C@H]3C)cc2OC)cc1OC (stereo partly drawn) [Compound 33]
- pIC50 [2]: 7.33

Compound: COc1ccc([C@@H](O)[C@@H](C)Oc2ccc(C3OC(c4ccc(O[C@H](C)[C@H](O)c5ccc(OC)c(OC)c5)c(OC)c4)[C@H](C)[C@H]3C)cc2OC)cc1OC (stereo partly drawn) [manassantin A]
- HIF-1α expression induced by CoCl2 ([3]; 4T1 cells, 240 μM CoCl2 24 h, manassantin A 100 nM): inhibited
- concentration significantly inhibiting hypoxia-induced nuclear expression of HIF-1α protein ([3]; 4T1 cells, hypoxia 0.5% O2, 24 h): higher than 10 nM
- expression of HIF-1 ([3]; at the concentration 100 nM): completely inhibited
- HIF-1α nuclear expression induced by CoCl2 [4]: inhibited
- concentration significantly inhibiting VEGF induced by hypoxia [5]: higher than 10 nM
- cell survival rate [6]: ~70%
- tumor cell growth, trial 1 ([7]; single dose 10 μM, 48 h, SRB): reduced the growth of all tumors tested
- lethality, trial 1 [7, 10]: more than 50%
- lethality, trial 2 [7, 10]: more than 50%
- tumor cell growth, trial 2 ([7]; trial 2, 48 h, SRB): reduced the growth of all tumors tested
- Death Days ([8]; Group 4, 100.00 mg/kg/dose IP): 0
- Survivors/Total at day 15 ([8]; Group 4, 100.00 mg/kg/dose IP): 0/1
- Death Days ([8]; Group 11, 12.50 mg/kg/dose IP): 0
- Survivors/Total at day 15 ([8]; Group 11, 12.50 mg/kg/dose IP): 0/1
- Death Days ([8]; Group 12, 1.56 mg/kg/dose IP): none
- Survivors/Total at day 15 ([8]; Group 12, 1.56 mg/kg/dose IP): 1/1
- Death Days ([8]; Group 13, 3.13 mg/kg/dose IP): none
- Survivors/Total at day 15 ([8]; Group 13, 3.13 mg/kg/dose IP): 1/1
- Death Days ([8]; Group 14, 6.25 mg/kg/dose IP): none
- Survivors/Total at day 15 ([8]; Group 14, 6.25 mg/kg/dose IP): 1/1
- toxicity (in words) ([8]; levels of 6.25, 3.13, and 1.56 mg/kg/dose IP): non-toxic
- toxicity (in words) ([8]; levels of 12.50 and 100.00 mg/kg/dose IP): resulted in death
- toxicity outcome at first dose levels ([8]; single IP injection of 400, 200 and 100 mg/kg, one mouse each): all 3 mice had to be sacrificed
- release of interleukin-2 [1]: inhibited
- Solubility (Group 4, 200.0 mg/mL in 100% DMSO): soluble, no
- Solubility (Group 11, 25.0 mg/mL in 100% DMSO): soluble, no
- Solubility (Group 12, 3.125 mg/mL in 100% DMSO): soluble, no
- Solubility (Group 13, 3.125 mg/mL in 100% DMSO): soluble, no
- Solubility (Group 14, 3.125 mg/mL in 100% DMSO): soluble, no
- effect on iron chelator-induced HIF-1 activation [9]: no significant effect

Source: patent US8946289B2, “Manassatin compounds and methods of making and using the same” (Duke University, priority 2008, dated 2015)
